Values quoted from earlier work in US20130183261A1, “METHOD AND COMPOSITION FOR DELIVERING ACTIVE INGREDIENT INTO AIR, AND USE THEREOF” (priority 2010, published 2013).

Settings: at 25° C.; neat solvent

Viscosity: 11.4 mPa·s
Compound: CCCOC(C)COC(C)CO (stereo not shown) [DPnP, dipropylene glycol n-propyl ether]
